Here are results for 53 compounds from US20080312435A1, “Imine Compound” (TAISHO PHARMACEUTICAL CO., LTD., priority 2004, published 2008).

One data set deals with T1, human CB2 receptor (Homo sapiens, UniProt P34972).
T1 construct: expressed in transfected cells
In words: Human CB2 receptor binding inhibition test ([3H]CP-55,940, CHO membrane fractions). Particulars: [3H]CP-55,940, membrane fractions of CHO cells stably expressing human CB2 receptor, 25° C., 2 hours; read-out: CB2 IC50 (Inhibition of binding to human CB2 receptor). The method in brief: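 Membranes from CHO-DHFR(−) cells stably expressing human CB2 used for [3H]CP-55,940 binding; filter-bound radioactivity counted by scintillation after washes with 0.1% BSA buffer. Nonspecific binding defined with 2.0 μM CP-55,940; IC50 for inhibition of specific binding.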

T1 sequence (P34972 whole entry): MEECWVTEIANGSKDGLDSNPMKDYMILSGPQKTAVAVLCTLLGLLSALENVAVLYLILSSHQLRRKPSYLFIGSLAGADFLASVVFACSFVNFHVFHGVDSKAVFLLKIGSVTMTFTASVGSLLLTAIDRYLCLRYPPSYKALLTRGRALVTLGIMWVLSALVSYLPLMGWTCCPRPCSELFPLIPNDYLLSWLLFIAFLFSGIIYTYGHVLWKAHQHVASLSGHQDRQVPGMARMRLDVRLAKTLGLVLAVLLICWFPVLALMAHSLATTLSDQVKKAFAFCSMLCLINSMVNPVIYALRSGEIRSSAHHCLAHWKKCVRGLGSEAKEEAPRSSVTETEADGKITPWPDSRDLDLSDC

As usually defined, the IC50 is the concentration that inhibits the measured activity by half. Broadly, the melting point is the temperature, or range, at which the solid turns liquid. In the case of `Cc1c(C(C)(C)C)s/c(=N\C(=O)c2cc(F)ccc2C(F)(F)F)n1C` [compound 143], the melting point lay within 83 to 85 °C. In addition, the IC50 on human CB2 receptor came to 7.4 nM.

For the compound `Cc1ccc(F)c(C(=O)/N=c2\sc(C(C)(C)C)c(C)n2C)c1F` [compound 144], the melting point is 140 to 142 °C. The IC50 at human CB2 receptor stood at 4.3 nM.

On to `COc1ccc(Cl)cc1C(=O)/N=c1\sc(C(C)(C)C)c(C)n1C` [compound 146], for which the melting point is 177 to 179 °C. Besides, on human CB2 receptor, the IC50 was 6.6 nM.

In turn, `COc1cc(Cl)ccc1C(=O)/N=c1\sc(C(C)(C)C)c(C)n1C` [compound 147] returned a melting point of 117 to 119 °C. In addition, the IC50 at human CB2 receptor worked out at 9.6 nM.

`Cc1c(C(C)(C)C)s/c(=N\C(=O)C(F)(F)C(F)(F)C(F)(F)F)n1C` [compound 149] had a melting point of 180 to 182 °C. Also, the IC50 at human CB2 receptor was 12.2 nM.

The compound `CCn1c(C)c(C(C)(C)C)s/c1=N\C(=O)c1ccccc1C(F)(F)F` [compound 151] yielded a melting point of 74 to 76 °C. Further, the IC50 at human CB2 receptor was found to be 3.2 nM.

Take `CCn1c(C)c(C(C)(C)C)s/c1=N\C(=O)c1ccccc1OC(F)(F)F` [compound 153]: the melting point lay in the range of 104 to 105 °C. Moreover, the IC50 on human CB2 receptor was found to be 17.8 nM.

Turning to `CCn1c(C)c(C(C)(C)C)s/c1=N\C(=O)c1cc(Br)ccc1F` [compound 154], the melting point was 105 to 106 °C. Further, the IC50 at human CB2 receptor came out at 5.9 nM.

With `CCn1c(C)c(C(C)(C)C)s/c1=N\C(=O)c1cc(F)ccc1Br` [compound 155], the melting point is 115 to 116 °C. Further, the IC50 at human CB2 receptor amounted to 4.3 nM.

The compound `CCn1c(C)c(C(C)(C)C)s/c1=N\C(=O)c1ccc(F)cc1Br` [compound 156] displayed a melting point of 99 to 100 °C. In addition, at human CB2 receptor, the half-inhibitory concentration (IC50) is 11.4 nM.

The compound `CCn1c(C)c(C(C)(C)C)s/c1=N\C(=O)c1cc(I)ccc1F` [compound 157] displayed a melting point of 87 to 89 °C. For the same compound, the IC50 at human CB2 receptor came out at 12.1 nM.

`CCn1c(C)c(C(C)(C)C)s/c1=N\C(=O)c1cc(Cl)ccc1Cl` [compound 158]: the melting point fell in the range of 127 to 128 °C. The IC50 at human CB2 receptor was 7.1 nM.

The compound `CCn1c(C)c(C(C)(C)C)s/c1=N\C(=O)c1cc(F)c(F)cc1Cl` [compound 159] yielded a melting point of 107 to 108 °C. Moreover, the concentration for half-maximal inhibition (IC50) on human CB2 receptor is 8.4 nM.

The compound `CCn1c(C)c(C(C)(C)C)s/c1=N\C(=O)c1cc(F)c(Cl)cc1Cl` [compound 160] had a melting point of 112 to 114 °C. Besides, the IC50 on human CB2 receptor amounted to 8.5 nM.

For the compound `CCn1c(C)c(C(C)(C)C)s/c1=N\C(=O)c1cc(F)ccc1C` [compound 161], the melting point lay in the range of 108 to 109 °C. On human CB2 receptor, the IC50 worked out at 9.7 nM.

As for `CCn1c(C)c(C(C)(C)C)s/c1=N\C(=O)c1ccc(Cl)cc1C` [compound 162], the melting point lay within 125 to 126 °C. In addition, the IC50 at human CB2 receptor was 12 nM.

In the case of `CCn1c(C)c(C(C)(C)C)s/c1=N\C(=O)c1ccc(C)cc1Br` [compound 163], the melting point was in the range of 100 to 102 °C. Also, the IC50 on human CB2 receptor was found to be 14.9 nM.

Compound `CCn1c(C)c(C(C)(C)C)s/c1=N\C(=O)c1cc(F)ccc1C(F)(F)F` [compound 164] showed a melting point of 103 to 104 °C. Besides, the 50% inhibitory concentration (IC50) at human CB2 receptor was 4.1 nM.

As to `CCn1c(C)c(C(C)(C)C)s/c1=N\C(=O)c1cccc(C(F)(F)F)c1F` [compound 165], the melting point lay within 97 to 99 °C. Also, the IC50 at human CB2 receptor turned out to be 4.3 nM.

As for `CCn1c(C)c(C(C)(C)C)s/c1=N\C(=O)c1cc(Cl)ccc1OC` [compound 167], the melting point lay in the range of 108 to 109 °C. Besides, the IC50 at human CB2 receptor is 4.6 nM.

Consider `CCn1c(C)c(C(C)(C)C)s/c1=N\C(=O)c1cnccc1C(F)(F)F` [compound 170], for which the melting point was 110 to 112 °C. Also, the IC50 on human CB2 receptor was found to be 13.8 nM.

`CCn1c(C)c(C(C)(C)C)s/c1=N\C(=O)c1cc(C(F)(F)F)ccc1OC(F)F` [compound 174] came in with a melting point of 95 to 97 °C. In addition, the IC50 at human CB2 receptor stood at 11.7 nM.

`Cc1cccc(C(=O)/N=c2\sc(C(C)(C)C)c(C)n2CC2CC2)c1` [compound 179] registered a melting point of 132 to 134 °C. In addition, at human CB2 receptor, the IC50 came out at 17.8 nM.

In turn, `Cc1c(C(C)(C)C)s/c(=N\C(=O)c2ccccc2F)n1CC1CC1` [compound 185] returned a melting point of 182 to 183 °C. The half-maximal inhibitory concentration (IC50) at human CB2 receptor turned out to be 11 nM.

Turning to `Cc1c(C(C)(C)C)s/c(=N\C(=O)c2cccc(I)c2)n1CC1CC1` [compound 192], the melting point is 114 to 115 °C. The 50% inhibitory concentration (IC50) on human CB2 receptor amounted to 13.2 nM.

`COc1cccc(C(=O)/N=c2\sc(C(C)(C)C)c(C)n2CC2CC2)c1` [compound 194] showed a melting point of 108 to 109 °C. Moreover, on human CB2 receptor, the 50% inhibitory concentration (IC50) is 19.1 nM.

In turn, `Cc1c(C(C)(C)C)s/c(=N\C(=O)c2cccc(OC(F)(F)F)c2)n1CC1CC1` [compound 196] had a melting point of 106 to 108 °C. For the same compound, the IC50 on human CB2 receptor turned out to be 7.6 nM.

`Cc1c(C(C)(C)C)s/c(=N\C(=O)c2cccc(OC(F)(F)C(F)F)c2)n1CC1CC1` [compound 198] came in with a melting point of 109 to 111 °C. At human CB2 receptor, the IC50 was 2.7 nM.

`CNc1ccccc1C(=O)/N=c1\sc(C(C)(C)C)c(C)n1CC1CC1` [compound 200] yielded a melting point of 158 to 159 °C. Further, the concentration for half-maximal inhibition (IC50) on human CB2 receptor turned out to be 15.1 nM.

`Cc1c(C(C)(C)C)s/c(=N\C(=O)c2cccc(N(C)C)c2)n1CC1CC1` [compound 201] returned a melting point of 128 to 130 °C. Also, the IC50 at human CB2 receptor amounted to 19.1 nM.

`Cc1c(C(C)(C)C)s/c(=N\C(=O)c2cccc([N+](=O)[O-])c2)n1CC1CC1` [compound 209] yielded a melting point of 87 to 89 °C. Further, the IC50 at human CB2 receptor was found to be 1.4 nM.

The compound `Cc1c(C(C)(C)C)s/c(=N\C(=O)c2ccc(C#N)cc2)n1CC1CC1` [compound 210] came in with a melting point of 125 to 126 °C. Besides, at human CB2 receptor, the IC50 came out at 15.7 nM.

The compound `Cc1ccc(C(=O)/N=c2\sc(C(C)(C)C)c(C)n2CC2CC2)c(C)c1` [compound 216] yielded a melting point of 100 to 101 °C. Further, the IC50 on human CB2 receptor stood at 1.7 nM.

`Cc1ccc(C)c(C(=O)/N=c2\sc(C(C)(C)C)c(C)n2CC2CC2)c1` [compound 217] registered a melting point of 106 to 107 °C. In addition, the IC50 on human CB2 receptor was 2.6 nM.

Compound `Cc1cccc(C)c1C(=O)/N=c1\sc(C(C)(C)C)c(C)n1CC1CC1` [compound 218] had a melting point of 98 to 100 °C. Besides, the IC50 at human CB2 receptor was 5.7 nM.

In turn, `Cc1c(C(C)(C)C)s/c(=N\C(=O)c2cc(C(F)(F)F)ccc2C(F)(F)F)n1CC1CC1` [compound 220] returned a melting point of 159 to 161 °C. Besides, the IC50 at human CB2 receptor turned out to be 3.9 nM.

`Cc1c(C(C)(C)C)s/c(=N\C(=O)c2cc(F)ccc2F)n1CC1CC1` [compound 221] gave a melting point of 170 to 172 °C. Also, the IC50 at human CB2 receptor was 15.6 nM.

As for `Cc1c(C(C)(C)C)s/c(=N\C(=O)c2ccc(F)cc2F)n1CC1CC1` [compound 224], the melting point was in the range of 111 to 112 °C. Besides, the IC50 on human CB2 receptor worked out at 13 nM.

Consider `Cc1c(C(C)(C)C)s/c(=N\C(=O)c2ccc(Cl)cc2F)n1CC1CC1` [compound 226], for which the melting point lay in the range of 108 to 110 °C. Moreover, the IC50 at human CB2 receptor was determined as 7.7 nM.

The compound `Cc1c(C(C)(C)C)s/c(=N\C(=O)c2ccc(Br)cc2F)n1CC1CC1` [compound 227] came in with a melting point of 121 to 131 °C. At human CB2 receptor, the 50% inhibitory concentration (IC50) was 8.2 nM.

Compound `Cc1c(C(C)(C)C)s/c(=N\C(=O)c2cc(Br)ccc2F)n1CC1CC1` [compound 230] came in with a melting point of 113 to 114 °C. Also, the IC50 at human CB2 receptor was 1.5 nM.

`Cc1c(C(C)(C)C)s/c(=N\C(=O)c2cc(I)ccc2F)n1CC1CC1` [compound 231] showed a melting point of 95 to 96 °C. Moreover, the IC50 on human CB2 receptor is 3 nM.

With `COc1ccc(OC)c(C(=O)/N=c2\sc(C(C)(C)C)c(C)n2CC2CC2)c1` [compound 234], the melting point was in the range of 83 to 85 °C. Also, the IC50 on human CB2 receptor was found to be 0.7 nM.

`CCOc1ccc(OCC)c(C(=O)/N=c2\sc(C(C)(C)C)c(C)n2CC2CC2)c1` [compound 238] yielded a melting point of 97 to 99 °C. The IC50 at human CB2 receptor was found to be 4.4 nM.

With `Cc1ccc(F)c(C(=O)/N=c2\sc(C(C)(C)C)c(C)n2CC2CC2)c1` [compound 239], the melting point was 117 to 119 °C. Moreover, the IC50 on human CB2 receptor amounted to 2.4 nM.

For `Cc1ccc(F)cc1C(=O)/N=c1\sc(C(C)(C)C)c(C)n1CC1CC1` [compound 241], the melting point was 91 to 93 °C. In addition, the half-inhibitory concentration (IC50) on human CB2 receptor is 1 nM.

Turning to `Cc1cc(Cl)ccc1C(=O)/N=c1\sc(C(C)(C)C)c(C)n1CC1CC1` [compound 242], the melting point was in the range of 108 to 109 °C. In addition, at human CB2 receptor, the half-inhibitory concentration (IC50) came out at 4 nM.

Take `Cc1cccc(Cl)c1C(=O)/N=c1\sc(C(C)(C)C)c(C)n1CC1CC1` [compound 244]: the melting point is 159 to 160 °C. For the same compound, the IC50 at human CB2 receptor amounted to 3.2 nM.

As for `Cc1cccc(Br)c1C(=O)/N=c1\oc(C(C)(C)C)c(C)n1CC1CC1` [compound 248], the melting point fell in the range of 89 to 90 °C. At human CB2 receptor, the IC50 was 5.6 nM.

Take `Cc1c(C(C)(C)C)s/c(=N\C(=O)c2cc(C(F)(F)F)ccc2F)n1CC1CC1` [compound 251]: the melting point was in the range of 113 to 115 °C. In addition, the 50% inhibitory concentration (IC50) on human CB2 receptor was 3.4 nM.

In the case of `Cc1c(C(C)(C)C)s/c(=N\C(=O)c2cc(F)ccc2C(F)(F)F)n1CC1CC1` [compound 254], the melting point lay in the range of 110 to 112 °C. Moreover, the IC50 on human CB2 receptor was determined as 1.4 nM.

On to `Cc1c(C(C)(C)C)s/c(=N\C(=O)c2cc(C(F)(F)F)ccc2Cl)n1CC1CC1` [compound 257], for which the melting point was 100 to 102 °C. The half-inhibitory concentration (IC50) on human CB2 receptor stood at 1.3 nM.

On to `Cc1c(C(C)(C)C)s/c(=N\C(=O)c2cc(Br)ccc2OC(F)F)n1CC1CC1` [compound 266], for which the melting point is 169 to 170 °C. The IC50 on human CB2 receptor was 0.8 nM.
